Reference: patent US11591596B2, “Compounds and compositions including phosphorothioated oligodeoxynucleotide, and methods of use thereof” (City of Hope, priority 2015, dated 2023)

Experiments:
[1] = test system: Human immune cells (CD14+ monocytes, CD1c+ mDCs, CD3+ T cells and CD19+ B cells); experiment: Uptake of Cy3-labeled CpG-anti-miRs by human immune cells, flow cytometry; assay type: cell-based; settings: for intracellular uptake: Cy3-labeled, human immune cells
Method: FIGS. 16A-16B. Cell-selective uptake of CpG-anti-miR146a. […] CpG-anti-miR146a was Cy3-labeled to detect the intracellular uptake by target cells using flow cytometry. FIG. 16A) Human immune cells were incubated with indicated concentrations of CpG-anti-miR146acY3 for 1 hr. The uptake by CD14+ monocytes, CD1c+ mDCs, CD3+ T cells and CD19+ B cells was measured using flow cytometry.
where * indicates a phosphorothioate linkage, mN indicates a 2′OMe modified nucleotide, and x indicates a linker described herein. CpG-anti-miRNAs were Cy3-labeled to detect the intracellular uptake by target cells using flow cytometry. […] Treatment of these compounds reduces the corresponding miR expression in human and mouse myeloid cells (FIGS. 17A-17F, 18A-18F, 19A-19H).

IRAK1 (miR146a target) = experiment: Immunoblot of downstream target IRAK1; assay type: cell-based, mouse or human; settings: for IRAK1 (downstream target regulation): 500 nM, 48 hrs, RAW264.7 or A20 cells
Method: (§1) FIGS. 20A-20D. Effects of CpG-anti-miRNAs on downstream targets. […] Mouse RAW264.7 or human MV4-11 cells were incubated with 250 nM or 500 nM of CpG-anti-miR155, CpG-anti-miR125b, or CpG-anti-miR146a, or 500 nM of CpG-scramble for 48 h, then the cell lysates were collected and electrophoresed and immunoblotted by antibodies against SHIP1 (miR155 target) (FIG. 20A), IRF4 (miR125b target) (FIG. 20B), or IRAK1 (miR146a target) (FIG. 20C). The band intensities were normalized against β-actin and quantified. Fold induction over the control protein levels are indicated below the blot. FIG. 20D) MV4-11 cells were incubated with 500 nM of CpG-anti-miR155, CpG-antimiR125b, CpG-anti-miR146a, or CpG-scramble for 24 h, then cell lysates were collected and electrophoresed and immunoblotted to detect activated caspase 3 indicating induction of apoptosis.
(§2) FIGS. 21A-21H. Comparing the inhibition effects of CpG-anti-miR and GpC-anti-miR. […] The cells were incubated with 100 nM CpG-anti-miRs or GpC-anti-miRs for 18 hrs. […] RAW264.7 (FIGS. 21E,21G) or A20 cells (FIGS. 21F,21H) were incubated with 500 nM of CpG-anti-miR155, GpC-anti-miR155, or CpG-anti-miR146a, GpC-anti-miR146a for 48 hrs, then the cell lysates were collected and immunoblotted using antibodies against SHIP1 (miR155 target) or IRAK1 (miR146a target)
Mouse RAW264.7 or human MV4-11 cells were incubated with 250 nM or 500 nM of CpGanti-miR155, CpG-anti-miR125b, or CpG-anti-miR146a, or 500 nM of CpG-scramble for 48 h, then the cell lysates were collected and electrophoresed and immunoblotted by antibodies against SHIP1 (miR155 target) (FIG. 20A), IRF4 (miR125b target) (FIG. 20B), or IRAK1 (miR146a target) (FIG. 20C). The band intensities were normalized against β-actin and quantified. Fold induction over the control protein levels are indicated below the blot. FIG. 20D) MV4-11 cells were incubated with 500 nM of CpG-anti-miR155, CpG-antimiR125b, CpG-anti-miR146a, or CpG-scramble for 24 h, then cell lysates were collected and electrophoresed and immunoblotted to detect activated caspase 3 indicating induction of apoptosis. […]

miR-146a = experiment: Mature miR-146a expression by TAQMAN qPCR; assay type: cell-based, human and mouse; settings: 100 nM
Method: FIGS. 19A-19H. Inhibitory effects of CpG-anti-miR146a. […] Mouse RAW264.7 (macrophages) (FIG. 19A) and DC2.4 (dendritic cells) (FIG. 19B) as well as human MV4-11 (FIG. 19C) and KG1a AML (FIG. 19D) cells were incubated with 100 nM CpG-anti-miR146a or CpG-scrambled RNA (negative control) for 18 h and then treated with 1 vg/ml LPS for 4 h. KG1a, MOLM13 (FIG. 19E), and MOLM14 (FIG. 19F) cells were incubated with 100 nM CpG-anti-miR146a or CpG-scrambled RNA for 18 h. FIGS. 19G-19H) Mouse CMM AML cells (FIG. 19G) and A20 lymphoma cells (FIG. 19H) were incubated with 100 nM CpG-miR146a mimic for 18 h. Mature miR-146a expression was measured using TAQMAN® qPCR assay and normalized to snoRNA234 levels. miR-146a expression level in untreated samples was set as 1.0. Data are shown as means±SEM (n=3). *P<0.05.
as §2
The cells were incubated with 100 nM CpG-anti-miRs or GpC-anti-miRs for 18 hrs. […] RAW264.7 (FIGS. 21E,21G) or A20 cells (FIGS. 21F,21H) were incubated with 500 nM of CpG-anti-miR155, GpC-anti-miR155, or CpG-anti-miR146a, GpC-anti-miR146a for 48 hrs, then the cell lysates were collected and immunoblotted using antibodies against SHIP1 (miR155 target) or IRAK1 (miR146a target).

[2] = test system: human AML cells KG1a, MOLM13, and MOLM14; experiment: Uptake of Cy3-labeled CpG-anti-miR146a by cultured AML cells; assay type: cell-based; settings: even at low concentrations
IRF4 (miR125b target) = experiment: Immunoblot of downstream target IRF4; assay type: cell-based, mouse or human; settings: 250 nM or 500 nM, 48 h; RAW264.7 or MV4-11 cells
Method: as §1
Mouse RAW264.7 or human MV4-11 cells were incubated with 250 nM or 500 nM of CpGanti-miR155, CpG-anti-miR125b, or CpG-anti-miR146a, or 500 nM of CpG-scramble for 48 h, then the cell lysates were collected and electrophoresed and immunoblotted by antibodies against SHIP1 (miR155 target) (FIG. 20A), IRF4 (miR125b target) (FIG. 20B), or IRAK1 (miR146a target) (FIG. 20C). The band intensities were normalized against β-actin and quantified. Fold induction over the control protein levels are indicated below the blot. […]

miR-125b = experiment: Mature miR-125b expression by TAQMAN qPCR; assay type: cell-based, human and mouse; settings: 100 nM, 18 h; various cell models
Method: FIGS. 18A-18F. Inhibitory effects of CpG-anti-miR125b. […] RAW264.7 (FIG. 18A), DC2.4 (FIG. 18B), and MV4-11 (FIG. 18C) cells were incubated with 100 nM CpG-anti-miR125b or CpG-scrambled RNA (negative control) for 18 h and then treated with 1 vg/mILPS for 4 h. Human AML cells—KG1a (FIG. 18D), MOLM13 (FIG. 18E), and MOLM14 (FIG. 18F)—were incubated with 100 nM CpG-anti-miR125b or control CpG-scrambled RNA for 18 h. Mature miR-125b expression was measured using TAQMAN® qPCR assay and normalized to snoRNA234 levels. miR-125b expression level in untreated samples was set as 1.0. Data are shown as means±SEM (n=3). *P<0.05.

miR-126 = miR-126 expression in K562 and MV4-11 cells with miR-126 inhibitors or mimics; assay type: cell-based; settings: 500 nM, 24 hours
Method: FIGS. 26A-26E. Effective knockdown of miR-126 with miR-126 inhibitors conjugated with CpG, GpC and PS, and effective over-expression with miR-126 mimics in K562 and MV4-11 cells. K562 and MV4-11 cells were treated with miR-126 inhibitors conjugated with CpG, GpC, PS (FIGS. 26A-26B) or miR-126 mimics (615, 616 and 617) (FIGS. 26C-26D) (500 nM) for 24 hours, and miR-126 expression was measured in these cells. […] FIG. 26E) Tabulation of sequence set forth herein.
Effective knockdown of miR-126 with miR-126 inhibitors conjugated with CpG, GpC and PS, and effective over-expression with miR-126 mimics in K562 and MV4-11 cells. K562 and MV4-11 cells were treated with miR-126 inhibitors conjugated with CpG, GpC, PS (FIGS. 26A-26B) or miR-126 mimics (615, 616 and 617) (FIGS. 26C-26D) (500 nM) for 24 hours, and miR-126 expression was measured in these cells.

miR-155 = experiment: Mature miR-155 expression by TAQMAN qPCR; assay type: cell-based, human and mouse; settings: 100 nM
Method: FIGS. 17A-17F. Inhibitory effects of CpG-anti-miR155. […] Mouse RAW264.7 (macrophages) (FIG. 17A) and DC2.4 (dendritic cells) (FIG. 17B) as well as human MV4-11 AML cells (FIG. 17C) were incubated with 100 nM CpG-anti-miR155 or CpG-scrambled RNA (negative control) for 18 h and then treated with 1 vg/ml LPS for 4 h. KG1a (FIG. 17D), MOLM13 (FIG. 17E), and MOLM14 (FIG. 17F) cells were incubated with 100 nM CpG-anti-miR155 or CpG-scrambled RNA for 18 h. Mature miR-155 expression was measured using TAQMAN® qPCR assay and normalized to snoRNA234 levels. miR-155 expression level in untreated samples was set as 1.0. Data are shown as means±SEM (n=3). *P<0.05.
as §2
The cells were incubated with 100 nM CpG-anti-miRs or GpC-anti-miRs for 18 hrs. […]

SHIP1 (miR155 target) = experiment: Immunoblot of downstream target SHIP1; assay type: cell-based, mouse or human
Method: as §1
FIGS. 21A-21H. Comparing the inhibition effects of CpG-anti-miR and GpC-anti-miR. […]
Mouse RAW264.7 or human MV4-11 cells were incubated with 250 nM or 500 nM of CpGanti-miR155, CpG-anti-miR125b, or CpG-anti-miR146a, or 500 nM of CpG-scramble for 48 h, then the cell lysates were collected and electrophoresed and immunoblotted by antibodies against SHIP1 (miR155 target) (FIG. 20A), IRF4 (miR125b target) (FIG. 20B), or IRAK1 (miR146a target) (FIG. 20C). The band intensities were normalized against β-actin and quantified. […]

[3] = 250 nM or 500 nM, 48 h, RAW264.7 or MV4-11 cells
[4] = 18 h, human and mouse myeloid cells

## 5′ G*G*T GCA TCG ATG CAGG*G*G* G*G xxxxx mC*mC*mC*mA*mU*mG*mG*mA*mA*mU*mU*mC*mA*mG*mU*mU*mC*mU*mC*mA 3′ [CpG-anti-miR146a]
[1]
  intracellular uptake: uptake of these compounds was observed
[1]; without any transfection reagents
  internalization by target immune and leukemic cells: Dose and time dependent internalization
IRAK1 (miR146a target); [3]
  IRAK1 protein level: upregulated
IRAK1 (miR146a target)
  IRAK1 (downstream target regulation): regulates downstream targets
miR-146a; [4]
  miR-146a expression: reduces miR-146a expression
miR-146a; 18 hrs, RAW264.7 and A20 cells
  miR-146a expression: reduces miR155 or miR-146a expression
[2]
  internalization by cultured AML cells: rapidly internalize

## 5′ G*G*T GCA TCG ATG CAGG*G*G* G*G xxxxx mU*mC*mA*mC*mA*mA*mG*mU*mU*mA*mG*mG*mG*mU*mC*mU*mC*mA*mG*mG*mG*mA 3′ [CpG-anti-miR125b]
[1]
  intracellular uptake: uptake of these compounds was observed
IRF4 (miR125b target)
  IRF4 protein level (downstream target regulation): regulate downstream targets
miR-125b
  miR-125b expression: reduces miR-125b expression

## 5′ G*G*T*G*C*A*T*C*G*A*T*G*C*A*G*G*G*G*G*G (SEQ ID NO: 3) xxxxx mC*mG*mC* mA*mU*mU* mA*mU*mU* mA*mC*mU* mC*mA*mC* mG*mG*mU* mA*mC*mG*mA (SEQ ID NO: 48) 3′ [completely PS-modified oligo]
miR-126
  miR-126 expression (knockdown by inhibitors): succeeds in blocking miR126

## 5′ G*GT. GCA TGC ATG CAG G*G*G*G*G (SEQ ID NO: 2) xxxxx mCmGmC mAmUmU mAmUmU mAmCmU mCmAmC mGmGmU mAmCmG mA (SEQ ID NO: 17) 3′ [GpC]
miR-126
  miR-126 expression (knockdown by inhibitors): succeeds in blocking miR126

## 5′G*G*T GCA TCG ATG CAGG*G*G* G*G xxxxx mA*mC*mC*mC*mC*mU*mA*mU*mC*mA*mC*mA*mA*mU*mU*mA*mG*mC*mA*mU*mU*mA*mA 3′ [CpG-anti-miR155]
miR-155; [4]
  miR-155 expression: reduces miR-155 expression
miR-155; 18 hrs, RAW264.7 and A20 cells
  miR155 expression: reduces miR155 or miR-146a expression
[1]
  intracellular uptake: uptake of these compounds was observed
SHIP1 (miR155 target); [3]
  SHIP1 protein level: upregulated
SHIP1 (miR155 target); 500 nM, 48 hrs, RAW264.7 or A20 cells
  SHIP1 (downstream target regulation): regulates downstream targets

## G*G*T GCA TGC ATG CAGG*G*G* G*G (SEQ ID NO: 2) xxxxx mC*mC*mC*mA*mT*mG*mG*mA*mA*mT*mT*mC*mA*mG*mT*mT*mC*mT*mC*mA (SEQ ID NO: 36) 3′ [GpC-anti-miR146a]
IRAK1 (miR146a target)
  IRAK1 (downstream target regulation): regulates downstream targets
miR-146a; 18 hrs, RAW264.7 and A20 cells
  miR-146a expression: reduces miR155 or miR-146a expression
